Data taken from US6495525B1, “VLA-4 inhibitor: oMePUPA-V” (Biogen, Inc., priority 1998, dated 2002).

How the values were obtained:
α4β7 = biological target: T1, α4β7 (Homo sapiens, UniProt P13612+P26010); experiment: JY cell adhesion to CS1/BSA conjugate; assay type: cell-based; details: Mn+2
T1 construct: endogenous in cells; host or cells: JY cells
T1 sequence (P13612 34-1032): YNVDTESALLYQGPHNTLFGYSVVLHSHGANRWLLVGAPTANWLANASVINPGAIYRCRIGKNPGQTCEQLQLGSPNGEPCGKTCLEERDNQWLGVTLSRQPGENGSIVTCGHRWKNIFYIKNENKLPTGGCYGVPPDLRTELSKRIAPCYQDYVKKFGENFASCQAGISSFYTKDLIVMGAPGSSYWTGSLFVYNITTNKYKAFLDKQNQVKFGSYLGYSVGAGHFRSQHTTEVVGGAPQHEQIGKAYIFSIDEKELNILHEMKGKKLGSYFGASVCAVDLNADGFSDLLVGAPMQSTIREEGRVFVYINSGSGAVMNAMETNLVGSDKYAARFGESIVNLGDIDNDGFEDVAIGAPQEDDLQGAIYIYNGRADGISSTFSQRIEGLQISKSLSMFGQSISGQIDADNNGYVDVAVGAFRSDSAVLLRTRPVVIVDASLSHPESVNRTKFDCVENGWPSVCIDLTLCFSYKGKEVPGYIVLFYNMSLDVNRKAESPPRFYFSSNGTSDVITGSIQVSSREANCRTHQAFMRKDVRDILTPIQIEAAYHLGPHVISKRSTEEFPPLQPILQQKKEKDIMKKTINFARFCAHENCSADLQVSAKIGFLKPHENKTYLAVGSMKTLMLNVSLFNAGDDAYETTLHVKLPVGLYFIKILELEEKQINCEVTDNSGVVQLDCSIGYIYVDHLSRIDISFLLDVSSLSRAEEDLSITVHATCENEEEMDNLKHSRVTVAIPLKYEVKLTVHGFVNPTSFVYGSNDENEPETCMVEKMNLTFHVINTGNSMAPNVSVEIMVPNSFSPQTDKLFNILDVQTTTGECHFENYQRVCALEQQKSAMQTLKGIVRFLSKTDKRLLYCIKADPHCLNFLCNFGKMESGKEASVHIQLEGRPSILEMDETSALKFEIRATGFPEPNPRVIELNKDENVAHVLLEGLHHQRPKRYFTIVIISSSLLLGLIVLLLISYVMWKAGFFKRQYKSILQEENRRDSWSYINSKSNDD
T1 sequence (P26010 20-798): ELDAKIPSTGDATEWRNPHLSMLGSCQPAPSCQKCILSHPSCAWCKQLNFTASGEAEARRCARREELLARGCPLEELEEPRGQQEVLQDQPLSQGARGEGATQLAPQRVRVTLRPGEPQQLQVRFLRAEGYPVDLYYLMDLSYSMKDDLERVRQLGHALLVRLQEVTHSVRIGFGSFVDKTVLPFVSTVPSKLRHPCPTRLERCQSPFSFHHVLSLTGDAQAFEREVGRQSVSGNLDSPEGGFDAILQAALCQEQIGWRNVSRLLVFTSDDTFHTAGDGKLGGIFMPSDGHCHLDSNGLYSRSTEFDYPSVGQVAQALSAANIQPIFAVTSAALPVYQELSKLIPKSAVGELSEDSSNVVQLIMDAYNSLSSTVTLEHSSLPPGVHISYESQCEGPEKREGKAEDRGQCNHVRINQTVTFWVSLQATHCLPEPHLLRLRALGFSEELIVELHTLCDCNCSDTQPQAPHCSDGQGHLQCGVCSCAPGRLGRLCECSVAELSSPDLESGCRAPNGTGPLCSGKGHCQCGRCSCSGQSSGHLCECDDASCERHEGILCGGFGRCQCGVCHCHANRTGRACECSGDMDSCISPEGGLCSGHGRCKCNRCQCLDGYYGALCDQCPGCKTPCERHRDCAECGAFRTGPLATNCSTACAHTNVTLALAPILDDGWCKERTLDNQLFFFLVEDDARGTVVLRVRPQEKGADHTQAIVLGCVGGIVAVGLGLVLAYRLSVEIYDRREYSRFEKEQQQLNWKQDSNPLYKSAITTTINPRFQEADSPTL
Protocol: Binding to α4β7 was assessed on JY cells in the presence of Mn^+2. In the binding assay, VCAM-Ig and oMePUPA-V compete for binding to α4β7 on JY cells (See section 4.1.1 for assay protocol). In the cell adhesion assay, oMePUPA-V was tested for its ability to block JY (α4β7) cell binding to CS1/BSA conjugate

[1] = Formulated / solution stability (HPLC); assay type: physicochemical
VLA-4 [2] = biological target: T2, VLA-4 (Homo sapiens, UniProt P05556+P13612); experiment: Purified VLA-4 Protein/Protein Assay with VCAM-Ig-AP; assay type: binding; design: endogenous in cells; host or cells: Jurkat (human T cell line)
T2 sequence (P05556 21-798, one chain of several): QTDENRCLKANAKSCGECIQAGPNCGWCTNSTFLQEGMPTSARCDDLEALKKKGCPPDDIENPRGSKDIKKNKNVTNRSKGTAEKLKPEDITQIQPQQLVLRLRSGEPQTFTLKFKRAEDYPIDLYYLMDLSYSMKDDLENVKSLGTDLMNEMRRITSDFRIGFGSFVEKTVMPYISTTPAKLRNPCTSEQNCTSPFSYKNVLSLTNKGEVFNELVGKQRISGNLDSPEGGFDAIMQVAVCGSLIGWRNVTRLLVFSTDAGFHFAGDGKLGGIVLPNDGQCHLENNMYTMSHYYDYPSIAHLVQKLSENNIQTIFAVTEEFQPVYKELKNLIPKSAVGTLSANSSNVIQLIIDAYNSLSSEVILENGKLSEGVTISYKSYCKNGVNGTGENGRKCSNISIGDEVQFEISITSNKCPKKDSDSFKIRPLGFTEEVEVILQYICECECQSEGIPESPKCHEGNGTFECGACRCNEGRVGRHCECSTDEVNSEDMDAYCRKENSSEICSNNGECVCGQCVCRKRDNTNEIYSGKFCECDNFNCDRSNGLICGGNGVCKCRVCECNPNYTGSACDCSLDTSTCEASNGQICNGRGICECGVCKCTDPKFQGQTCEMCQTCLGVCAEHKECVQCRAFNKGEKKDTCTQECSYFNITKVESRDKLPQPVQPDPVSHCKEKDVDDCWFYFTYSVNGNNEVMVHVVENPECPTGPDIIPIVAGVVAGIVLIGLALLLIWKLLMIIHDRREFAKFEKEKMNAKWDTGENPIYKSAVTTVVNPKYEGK
Protocol: VLA-4 was purified from a detergent extract of a high expressing subclone of α4-transfected K562 cells by antibody affinity chromatography and immobilized on microtiter wells to establish a protein/protein competitive binding assay. VCAM-Ig-AP was bound to the purified VLA-4-coated plate in the absence or presence of oMePUPA-V (Lot #2) and 1 mM MnCl2. Plates were read at 405 nm and the data were analyzed using SoftMax v. 2.32 software.

VLA-4 [3] = biological target: T2, VLA-4; experiment: VCAM-Ig Competitive Binding Assay on human PBLs; design: endogenous in cells; details: Mn+2
Description: PBLs, were isolated from peripheral blood of humans, sheep and dogs using methods described for sheep PBL (Abraham, W. M. et al. J. Clin. Invest. 93:776-787, 1994). The VCAM-Ig-AP Competitive Binding Assay was used to compare the binding of oMePUPA-V to these different cell types.

Cc1ccccc1NC(=O)Nc1ccc(CC(=O)N2CCC[C@H]2C(=O)N[C@H](C)CC(=O)O)cc1 [oMePUPA-V]
inhibition, JY (α4β7) CS1/BSA adhesion (α4β7; @ 100 μM): no inhibition @
blocking of α4β7 binding to CS1/BSA (in words) (α4β7; JY cells): does not block
Formulated stability (40° C.), time stable [1]: stable >4 wk
IC50 (VLA-4 [2]; 1 mM MnCl2, read-out: IC50, Purified VLA-4 VCAM-Ig binding): 0.1 nM
potency on isolated VLA-4 relative to Jurkat cells in the binding assay (VLA-4 [2]; in the presence of Mn+2): 80 fold
IC50 (VLA-4 [3]): 6 ± 1 nM
